From patent publication US20170001988A1, “PIPERIDINE AND PIPERAZINE DERIVATIVES AND THEIR USE IN TREATING VIRAL INFECTIONS AND CANCER” (THE UNITED STATES OF AMERICA, AS REPRESENTED BY THE …, priority 2013, published 2017)

What was measured:
HCVpp GT 1b = type: cell-based, HCV; settings: 10 μM; Huh 7.5.1 cells
HCV-Luc = HCV-Luc infection assay; type: cell-based; settings: Hepatitis C virus; for EC50: Table 3, read-out: EC50
HCVpp GT 1a = type: cell-based, HCV; settings: for inhibitory activity in HCVpp GT 1a: 10 μM, Huh 7.5.1 cells
HCV replicon GT 1b = type: cell-based; settings: 10 μM; luciferase 48 h
replicon GT 1a = test: Transient replicon assay, GT 1a; type: cell-based, HCV; settings: 10 μM; 48 h; Huh7.5.1 cells
[1] = system: HCVcc, genotype 2a, JFH-1 strain; test: HCVcc assay, extracellular and intracellular viral RNA by quantitative real-time PCR; type: cell-based, HCV; settings: for extracellular viral RNA level / intracellular viral RNA level: compound at 10 μM, Huh 7.5.1 cells, 48 h, vs DMSO
Method: Huh 7.5.1 cells were seeded in 12-well plates (10^5 cells/well) and cultured overnight. HCVcc was used to infect the cells with the treatment of compounds at 10 μM. Virus-containing medium was removed after 4 h incubation and compound treatment was added back followed by incubation for additional 48 h. Intracellular and extracellular viral RNA levels were evaluated by quantitative real-time PCR. The results are illustrated in FIG. 1 and are the means of three replicates ±SEM. […] Cyclosporin A at 10 μM was used as positive control.
Cell Culture-derived HCV (HCVcc, genotype 2a, JFH-1 strain) system provides direct evidence of anti-HCV activity of the compounds.
(§1) Cell Culture-derived HCV (HCVcc, genotype 2a, JFH-1 strain) system provides direct evidence of anti-HCV activity of the compounds. Determination of both extracellular and intracellular HCV levels can help evaluate whether the compounds interfere early-stage or late-stage infection. […] Cyclosporin A was tested in parallel to serve as control compound targeting early-stage HCV infection. […] At the highest concentration, cyclosporin A caused approximately 4-log fold reduction in intracellular RNA copies, while the extracellular level reduced less than […]. On the contrary, NCGC00345021 led to only about 1-log fold decrease in intracellular RNA copies when causing 3-log fold reduction in extracellular RNA level. Clearly, when the concentration increased, NCGC00345021 led to a more dramatic reduction in extracellular RNA copies.

HCV replicon GT 2a = type: cell-based; settings: for inhibitory effect in replicon GT 2a cell line: 10 μM, luciferase 48 h
HCVsc, genotype 2a = type: cell-based, HCV; settings: for inhibitory activity in the HCVsc infection level: 10 μM, Huh 7.5.1 cells, luciferase 48 h
[2] = ATPLite cytotoxicity assay; settings: human, Huh7.5.1 cells
Excerpt: (§2) EC50 was generated using the HCV-Luc infection assay and IC50 using the ATPLite assay.
(§3) EC50 was generated using the HCV-Luc infection assay and TC50 using the ATPLite assay.
(§4) The cytotoxicity of the compounds was further evaluated in HepG2 cells and primary human hepatocytes.

Huh7.5.1 cells = test: in vitro; settings: human
Excerpt: as §2, §3, §4

Dengue RVP = test: Dengue Reporter Virus Particles (RVPs) reproducibility assay; settings: increasing concentrations; Huh 7.5.1 cells; luciferase 48 h
Method: Huh 7.5.1 cells seeded in 96-well plates (10^4 cells/well) were cultured overnight. […] The results are means of three replicates ±SEM.

[3] = system: HCVcc, genotype 2a, JFH-1 strain; test: TCID50 determination: re-infection of naive Huh 7.5.1 cells with medium from the HCVcc assay; type: cell-based, HCV; settings: medium with extracellular virus used to re-infect naive Huh 7.5.1 cells
Method: FIG. 4B illustrates the TCID50 of naïve Huh 7.5.1 cells that were infected using medium collected in the HCVcc assay run using 0.32, 1.0, and 3.2 μM concentrations of NCGC00345021 and 0.032, 0.10 and 0.32 μM concentrations of Cyclosporin A.
as §1

GT 2a replicon RNA = test: Transient replicon assay, GT 2a; type: cell-based, HCV
VSVpp = type: cell-based
[4] = ATPlite assay run in parallel with the combination HCV-Luc assay; type: cell-based; settings: (S)-CCZ combined with anti-HCV drugs
Method: Combination of ribavirin and peginterferon α (IFN-α) has been the standard of care to treat chronic HCV infection for many years. Direct-acting antivirals, such as telaprevir and daclatasvir, were recently approved for therapy of hepatitis C. The combination of (S)-CCZ with these different classes of anti-HCV drugs is described in this example. HCV-Luc assay in parallel with ATPlite assay was performed in the presence of various concentrations of (S)-CCZ in combination with various concentrations of each drug. Using the MacSynergy II program based on Bliss independence model, three-dimensional surface plots were generated and log volume of synergism was calculated for each combination. The results were also analyzed with the CalcuSyn program, in which the combination indices were calculated.

HCV genotype 2a = type: in vivo, mice
HCV genotype 1b = type: in vivo, mice

| Compound | inhibitory activity in HCVpp GT 1b (HCVpp GT 1b) | EC50 (HCV-Luc) [µM] | inhibitory activity in HCVpp GT 1a (HCVpp GT 1a) | inhibitory effect in replicon GT 1b cell line (HCV replicon GT 1b) | inhibition in transient replicon GT 1a (replicon GT 1a) | extracellular viral RNA level [1] | intracellular viral RNA level [1] | inhibitory effect in replicon GT 2a cell line (HCV replicon GT 2a) | inhibitory activity in the HCVsc infection level (HCVsc, genotype 2a) | CC50 (Huh7.5.1 cells) [µM] | also measured |
| --- | --- | --- | --- | --- | --- | --- | --- | --- | --- | --- | --- |
| CN1CCN(C(c2ccccc2)c2ccc(Cl)cc2)CC1 (racemic) [racemic CCZ, 1-((4-Chlorophenyl)(phenyl)methyl)-4-methylpiperazine, reference compound] | None of racemic, (R) and (S)-CCZ showed any inhibitory activities | 0.044 ± 0.011 | None of racemic, (R) and (S)-CCZ showed any inhibitory activities | did not show much inhibitory effect | no inhibition was observed | reduced | reduced | did not show much inhibitory effect | significant inhibitory activities | – | CC50 [2]: 49.8 ± 17.2 µM |
| CN1CCN([C@H](c2ccccc2)c2ccc(Cl)cc2)CC1 [(R)-CCZ, (R)-1-((4-Chlorophenyl)(phenyl)methyl)-4-methylpiperazine] | None of racemic, (R) and (S)-CCZ showed any inhibitory activities | 0.02 ± 0.005 | None of racemic, (R) and (S)-CCZ showed any inhibitory activities | did not show much inhibitory effect | no inhibition was observed | reduced | reduced | did not show much inhibitory effect | significant inhibitory activities | 37.5 ± 4.2 | – |
| COc1ccc(CN2CCC(N(CCc3ccccc3)Cc3ccccc3)CC2)c(OC)c1 [NCGC00345021, N-Benzyl-1-(2,4-dimethoxybenzyl)-N-phenethylpiperidin-4-amine] | – | – | low inhibitory activity | – | – | – | – | did not show any inhibitory effect | no significant inhibitory activities | – | Dengue RVP reproducibility (Dengue RVP): dose-dependent inhibition; inhibition at 0.01 µM (HCV-Luc; at 10 nM): > 90%; % RLU at 10 μM, HCVpp GT 1a (HCVpp GT 1a; mean of five replicates ±SEM): 66.3 ± 9.49 % RLU; reduction in extracellular RNA level ([1]; at the highest concentration): 3 log fold; reduction in intracellular RNA copies ([1]; at the highest concentration): about 1 log fold; % RLU at 10 μM, HCV subgenomic replicon GT 2a cell line (HCV replicon GT 2a; mean of five replicates ±SEM): 54.4 ± 2.96 % RLU; % RLU at 10 μM, HCVsc (HCVsc, genotype 2a; mean of five replicates ±SEM): 104 ± 9.95 % RLU; TCID50 values [3]: dose-dependent reduction; inhibition of viral replication, transient GT 2a replicon (GT 2a replicon RNA; 10 μM, Huh 7.5.1 cells): modest inhibition; % RLU at 10 μM, HCV subgenomic replicon Transient GT 2a (GT 2a replicon RNA; mean of five replicates ±SEM): 139 ± 16.4 % RLU; % RLU at 10 μM, VSVpp (VSVpp): 103 ± 6.73 % RLU; inhibition on VSVpp (VSVpp; 10 μM): no inhibition |
| CN1CCN([C@@H](c2ccccc2)c2ccc(Cl)cc2)CC1 [(S)-CCZ, (S)-1-((4-Chlorophenyl)(phenyl)methyl)-4-methylpiperazine] | None of racemic, (R) and (S)-CCZ showed any inhibitory activities | 0.024 ± 0.009 | None of racemic, (R) and (S)-CCZ showed any inhibitory activities | did not show much inhibitory effect | no inhibition was observed | reduced | reduced | did not show much inhibitory effect | significant inhibitory activities | 33.4 ± 2.4 | cytotoxicity of the combinations [4]: without significant cytotoxicity; reduction of HCV titer from pretreatment baseline, genotype 2a (HCV genotype 2a; 50 mg/kg and 10 mg/kg daily, 6-week treatment): 1.5 log; HCV titers during the treatment period (drug resistance), genotype 2a (HCV genotype 2a; during treatment): continued to decline during the treatment period without rebound; decrease of genotype 1b virus titer (HCV genotype 1b; 2 mg/kg daily): approximately 1 log; reduction of HCV titer from pretreatment baseline, genotype 1b (HCV genotype 1b; 50 mg/kg and 10 mg/kg daily, 4 weeks of treatment): 2 log; HCV titers during the treatment period (drug resistance), genotype 1b (HCV genotype 1b; during treatment): continued to decline during the treatment period without rebound |
